According to patent US9944647B2 (Incyte Corporation, priority 2015, dated 2018):

Target: LSD-1 enzyme (Homo sapiens (Human), UniProt O60341)
Assay: LANCE LSD1/KDM1A demethylase assay (LSD1 histone demethylase biochemical assay)
Conditions: 1 nM LSD-1 enzyme, 1 hour preincubation at 25° C., Biotin-labeled Histone H3 peptide substrate
Experimental: Example A: LSD1 Histone Demethylase Biochemical Assay
LANCE LSD1/KDM1A demethylase assay—10 μL of 1 nM LSD-1 enzyme (ENZO BML-SE544-0050) in the assay buffer (50 mM Tris, pH 7.5, 0.01% Tween-20, 25 mM NaCl, 5 mM DTT) were preincubated for 1 hour at 25° C. with 0.8 μL compound/DMSO dotted in black 384 well polystyrene plates. […] Reactions were stopped by addition of 10 μL 1×LANCE Detection Buffer (PerkinElmer CR97-100) supplemented with 1.5 nM Eu-anti-unmodified H3K4 Antibody (PerkinElmer TRF0404), and 225 nM LANCE Ultra Streptavidin (PerkinElmer TRF102) along with 0.9 mM Tranylcypromine-HCl (Millipore 616431). After stopping the reactions plates were incubated for 30 minutes and read on a PHERAstar FS plate reader (BMG Labtech).

`CCN1CCC[C@@H](COc2nc(-c3ccc(C#N)cc3)c(-c3cnc4c(cnn4C)c3)c3nccn23)C1` [Example 29, 4-[5-{[(3R)-1-ethylpiperidin-3-yl]methoxy}-8-(1-methyl-1H-pyrazolo[3,4-b]pyridin-5-yl)imidazo[1,2-c]pyrimidin-7-yl]benzonitrile] and `Cn1ncc2cc(-c3c(-c4ccc(C#N)cc4)nc(OC[C@@H]4CCCN(CCO)C4)n4ccnc34)cnc21` [Example 34, 4-[5-{[(3R)-1-(2-hydroxyethyl)piperidin-3-yl]methoxy}-8-(1-methyl-1H-pyrazolo[3,4-b]pyridin-5-yl)imidazo[1,2-c]pyrimidin-7-yl]benzonitrile] cannot be ordered by IC50: at most 50 nM for the first, at most 50 nM for the second.

`Cc1cc(-c2c(-c3ccc(C#N)cc3)nc(OC[C@@H]3CCCN(C)C3)n3ccnc23)cc(F)c1CO` [Example 30, 4-(8-[3-fluoro-4-(hydroxymethyl)-5-methylphenyl]-5-{[(3R)-1-methylpiperidin-3-yl]methoxy}imidazo[1,2-c]pyrimidin-7-yl)benzonitrile] and `CN1CCC[C@@H](COc2nc(-c3ccc(C#N)cc3)c(-c3cc(F)c(CO)c(F)c3)c3nccn23)C1` [Example 32, 4-(8-[3,5-difluoro-4-(hydroxymethyl)phenyl]-5-{[(3R)-1-methylpiperidin-3-yl]methoxy}imidazo[1,2-c]pyrimidin-7-yl)benzonitrile] cannot be ordered by IC50: at most 50 nM for the first, at most 50 nM for the second.

`CN1CCC[C@@H](COc2nc(-c3ccc(C#N)cc3)c(-c3ccc(CO)c(F)c3)c3nccn23)C1` [Example 31, 4-(8-[3-fluoro-4-(hydroxymethyl)phenyl]-5-{[(3R)-1-methylpiperidin-3-yl]methoxy}imidazo[1,2-c]pyrimidin-7-yl)benzonitrile] and `Cc1cc(-c2c(-c3ccc(C#N)cc3)nc(OC[C@@H]3CCCN(C)C3)n3ccnc23)ccc1CO` [Example 35, 4-(8-[4-(hydroxymethyl)-3-methylphenyl]-5-{[(3R)-1-methylpiperidin-3-yl]methoxy}imidazo[1,2-c]pyrimidin-7-yl)benzonitrile] cannot be ordered by IC50: at most 50 nM for the first, at most 50 nM for the second.

`Cn1ncc2cc(-c3c(-c4ccc(C#N)cc4)nc(OC[C@@H]4CCCN(CCC#N)C4)n4ccnc34)cnc21` [Example 33, 4-[5-{[(3R)-1-(2-cyanoethyl)piperidin-3-yl]methoxy}-8-(1-methyl-1H-pyrazolo[3,4-b]pyridin-5-yl)imidazo[1,2-c]pyrimidin-7-yl]benzonitrile] and `COCCN1CCC[C@@H](COc2nc(-c3ccc(C#N)cc3)c(-c3cnc4c(cnn4C)c3)c3nccn23)C1` [Example 41, 4-[5-{[(3R)-1-(2-methoxyethyl)piperidin-3-yl]methoxy}-8-(1-methyl-1H-pyrazolo[3,4-b]pyridin-5-yl)imidazo[1,2-c]pyrimidin-7-yl]benzonitrile] cannot be ordered by IC50: at most 50 nM for the first, at most 50 nM for the second.

`CN1CCC[C@@H](COc2nc(-c3ccc(C#N)cc3)c(-c3ccc(CO)cc3)c3nccn23)C1` [Example 36, 4-(8-[4-(hydroxymethyl)phenyl]-5-{[(3R)-1-methylpiperidin-3-yl]methoxy}imidazo[1,2-c]pyrimidin-7-yl)benzonitrile] and `CN1CCC[C@@H](COc2nc(-c3ccc(C#N)cc3)c(-c3ccc4c(c3)c(N)nn4C)c3nccn23)C1` [Example 42, 4-(8-(3-amino-1-methyl-1H-indazol-5-yl)-5-{[(3R)-1-methylpiperidin-3-yl]methoxy}imidazo[1,2-c]pyrimidin-7-yl)benzonitrile] cannot be ordered by IC50: at most 50 nM for the first, at most 50 nM for the second.

`CN(C)C1CCN(c2nc(-c3ccc(C#N)cc3)c(-c3cnc4c(cnn4C)c3)c3nccn23)CC1` [Example 37, 4-[5-[4-(dimethylamino)piperidin-1-yl]-8-(1-methyl-1H-pyrazolo[3,4-b]pyridin-5-yl)imidazo[1,2-c]pyrimidin-7-yl]benzonitrile] and `CN(C)[C@@H]1CCN(c2nc(-c3ccc(C#N)cc3)c(-c3cnc4c(cnn4C)c3)c3nccn23)C1` [Example 38, 4-[5-[(3R)-3-(dimethylamino)pyrrolidin-1-yl]-8-(1-methyl-1H-pyrazolo[3,4-b]pyridin-5-yl)imidazo[1,2-c]pyrimidin-7-yl]benzonitrile] cannot be ordered by IC50: at most 50 nM for the first, at most 50 nM for the second.

`CN1CCC2(CCN(c3nc(-c4ccc(C#N)cc4)c(-c4cnc5c(cnn5C)c4)c4nccn34)C2)C1` (stereo not shown) [Example 39, 4-[5-(7-methyl-2,7-diazaspiro[4.4]non-2-yl)-8-(1-methyl-1H-pyrazolo[3,4-b]pyridin-5-yl)imidazo[1,2-c]pyrimidin-7-yl]benzonitrile] and `CN(C)C1CCN(c2nc(-c3ccc(C#N)cc3)c(-c3ccc4c(cnn4C)c3)c3nccn23)CC1` [Example 46, 4-[5-[4-(dimethylamino)piperidin-1-yl]-8-(1-methyl-1H-indazol-5-yl)imidazo[1,2-c]pyrimidin-7-yl]benzonitrile] cannot be ordered by IC50: at most 50 nM for the first, at most 50 nM for the second.

`COC(=O)N(C)Cc1ccc(-c2c(-c3ccc(C#N)cc3)nc(OC[C@@H]3CCCN(C)C3)n3ccnc23)cc1F` [Example 40, methyl[4-(7-(4-cyanophenyl)-5-{[(3R)-1-methylpiperidin-3-yl]methoxy}imidazo[1,2-c]pyrimidin-8-yl)-2-fluorobenzyl]methylcarbamate] and `CN1CCC[C@@H](COc2nc(-c3ccc(C#N)cc3)c(-c3ccc4c(c3)n(C)c(=O)n4C)c3nccn23)C1` [Example 44, 4-(8-(1,3-dimethyl-2-oxo-2,3-dihydro-1H-benzimidazol-5-yl)-5-{[(3R)-1-methylpiperidin-3-yl]methoxy}imidazo[1,2-c]pyrimidin-7-yl)benzonitrile] cannot be ordered by IC50: at most 50 nM for the first, 50 to 500 nM for the second.

`CN1CCC[C@@H](COc2nc(-c3ccc(C#N)cc3)c(-c3ccc4c(c3)OC(=O)N(C)C4)c3nccn23)C1` [Example 43, 4-(8-(3-methyl-2-oxo-3,4-dihydro-2H-1,3-benzoxazin-7-yl)-5-{[(3R)-1-methylpiperidin-3-yl]methoxy}imidazo[1,2-c]pyrimidin-7-yl)benzonitrile] and `CN1CCC[C@@H](COc2nc(-c3ccc(C#N)cc3)c(-c3cc4oc(=O)n(C)c4cc3F)c3nccn23)C1` [Example 45, 4-(8-(5-fluoro-3-methyl-2-oxo-2,3-dihydro-1,3-benzoxazol-6-yl)-5-{[(3R)-1-methylpiperidin-3-yl]methoxy}imidazo[1,2-c]pyrimidin-7-yl)benzonitrile] cannot be ordered by IC50: at most 50 nM for the first, at most 50 nM for the second.

`CN(C)C1CCN(c2nc(-c3ccc(C#N)cc3)c(-c3ccc4c(c3)oc(=O)n4C)c3nccn23)CC1` [Example 47, 4-[5-[4-(dimethylamino)piperidin-1-yl]-8-(3-methyl-2-oxo-2,3-dihydro-1,3-benzoxazol-6-yl)imidazo[1,2-c]pyrimidin-7-yl]benzonitrile] and `COc1ccc(-c2c(-c3ccc(C#N)cc3)nc(N3CCC(N(C)C)CC3)n3ccnc23)cn1` [Example 48, 4-[5-[4-(dimethylamino)piperidin-1-yl]-8-(6-methoxypyridin-3-yl)imidazo[1,2-c]pyrimidin-7-yl]benzonitrile] cannot be ordered by IC50: at most 50 nM for the first, 50 to 500 nM for the second.

`COc1ncc(-c2c(-c3ccc(C#N)cc3)nc(N3CCC(N(C)C)CC3)n3ccnc23)cc1F` [Example 49, 4-[5-[4-(dimethylamino)piperidin-1-yl]-8-(5-fluoro-6-methoxypyridin-3-yl)imidazo[1,2-c]pyrimidin-7-yl]benzonitrile] and `CN(C)C1CCN(c2nc(-c3ccc(C#N)cc3)c(-c3ccc(N4CCCC4=O)nc3)c3nccn23)CC1` [Example 50, 4-{5-[4-(dimethylamino)piperidin-1-yl]-8-[6-(2-oxopyrrolidin-1-yl)pyridin-3-yl]imidazo[1,2-c]pyrimidin-7-yl}benzonitrile] cannot be ordered by IC50: at most 50 nM for the first, 50 to 500 nM for the second.
